Reference: patent US20260219279A1, “IMPROVED HIGH-THROUGHPUT HYDROGEN-DEUTERIUM EXCHANGE-MASS SPECTROMETRY SYSTEM AND METHOD” (THE BOARD OF REGENTS OF THE UNIVERSITY OF OKLAHOMA, priority 2023, published 2026)

Experiments:
60 kDa chaperonin = target: T1, 60 kDa chaperonin (Escherichia coli, UniProt P0A6F5); test: Differential PTD-HDX-MS in 60° C.-depleted E. coli cell lysate; assay type: binding; conditions: 60° C.-PTD sample
T1 construct: endogenous in cells; host or cells: E. coli cell lysate
Protocol: (§1) Samples were prepared in triplicate.
(§2) The flowrate was controlled at 150 μL/min.
(§3) The decoy database was automatically generated in MSGF+ software.

[1] = target: T2, alkyl hydroperoxide reductase C (Escherichia coli, UniProt P0AE08); test: as above; assay type: binding; conditions: 60° C.-PTD sample
T2 construct: endogenous in cells; host or cells: E. coli cell lysate
Protocol: as §1, §2, §3

T2 sequence (P0AE08 2-187): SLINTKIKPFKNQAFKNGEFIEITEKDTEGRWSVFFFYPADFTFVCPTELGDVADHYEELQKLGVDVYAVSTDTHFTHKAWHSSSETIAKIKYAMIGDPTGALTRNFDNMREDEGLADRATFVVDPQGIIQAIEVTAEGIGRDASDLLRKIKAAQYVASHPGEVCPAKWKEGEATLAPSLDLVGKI
T1 sequence (P0A6F5 2-548): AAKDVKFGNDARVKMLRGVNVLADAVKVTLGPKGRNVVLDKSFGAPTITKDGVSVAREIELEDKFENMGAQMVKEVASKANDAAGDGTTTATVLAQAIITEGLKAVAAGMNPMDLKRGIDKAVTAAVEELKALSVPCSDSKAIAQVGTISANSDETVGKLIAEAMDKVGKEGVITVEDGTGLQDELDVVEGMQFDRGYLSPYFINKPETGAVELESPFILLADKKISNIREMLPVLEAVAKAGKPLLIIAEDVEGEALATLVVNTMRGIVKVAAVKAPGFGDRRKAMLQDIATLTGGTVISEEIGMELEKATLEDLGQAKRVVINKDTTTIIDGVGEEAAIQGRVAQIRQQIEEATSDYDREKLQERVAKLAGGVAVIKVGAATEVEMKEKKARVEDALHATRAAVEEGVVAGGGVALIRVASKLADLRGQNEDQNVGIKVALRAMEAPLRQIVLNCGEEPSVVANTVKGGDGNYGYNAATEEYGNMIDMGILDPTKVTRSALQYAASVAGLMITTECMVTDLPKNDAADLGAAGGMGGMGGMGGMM

In the case of CC(=O)Nc1nnc(S(N)(=O)=O)s1 [AZM, Acetazolamide], the “deuterium uptake difference of characterized peptides following AZM treatment” value (60 kDa chaperonin) is reported as “no significant differences” and the “deuterium uptake difference of characterized peptides following AZM treatment” value [1] is reported as “no significant differences”.
